This experiment concerns MDA-MB-231 breast cancer cells. As to the kind of experiment: Cell migration/invasion assay through a HUVEC monolayer, MDA-MB-231. In kind it is cell-based, human. Particulars: peptide 10 μM, re-applied every 2 hours for 10 hours. The source says:
FIGS. 14A and 14B are bar graphs showing the efficacy of TAT carrier peptide (TAT), αV5-3-TAT peptide (Alpha), βIIV5-3 peptide (Beta-2), and εV1-2 (Epsilon) in inhibiting the invasion of human MDA-MB-231 and MCF-7 breast cancer cells through a HUVEC monolayer. FIGS. 14C and 14D are bar graphs showing the efficacy of TAT carrier peptide (TAT) or αV5-3-TAT peptide in inhibiting the invasion of 4T1 (FIG. 11C) and MDA-MB-231 (FIG. 11D) cells.
FIGS. 14A and 14B show the results of a related experiment measuring the efficacy of TAT carrier peptide (TAT), αV5-3-TAT peptide (Alpha), βIIV5-3 peptide (Beta-2), and εV1-2 peptide (Epsilon) in inhibiting the invasion of human MDA-MB-231 and MCF-7 breast cancer cells through a HUVEC monolayer. FIGS. 14C and 14D show the results of a similar experiment showing the efficacy of TAT carrier peptide (TAT) or αV5-3-TAT peptide in inhibiting the invasion of 4T1 (FIG. 11C) and MDA-MB-231 (FIG. 11D) cells.
Cell Migration/invasion assay: Primary human endothelial cells (HUVEC's) were plated on top of a matrigel plug in trans-well plates. Once the cells had reached confluence (as determined by examination of a control well), 1×10^6 human breast cancer cells (MCF-7 or MDA-MB-231) expressing luciferase were added above the HUVEC cell layer. Where applicable, peptides were added to a final concentration of 10 μM and re-applied every 2 hours for 10 hours followed by further incubation. After 24-48 hours-incubation the HUVEC cell layer (and all other cells above the matrigel) were removed by scraping of the cell layer into the media and aspiration (repeated 3 times). The relative numbers of cancer cells that had crossed the HUVEC cell layer and entered the matrigel was then determined by bioluminescence detection of luciferase action following addition of luciferin substrate.

Bridges are numbered along the chain shown (N, C = ends). Where no end group is shown, it is not given here.

With “YGRKKRRQRRR-CC-QLVIAN (YGRKKRRQRRRCCQLVIAN; disulfide 12-13 (inferred)) [αV5-3-TAT]”, the “invasion of MDA-MB-231 cells through a HUVEC monolayer” value is “reduced”.

These data come from patent US20090137493A1, “Inhibition of tumor metastases using protein kinase C (PKC) inhibitors” (priority 2007, published 2009).
